Common to all, as to format: cell-based
Experiment [1] has as its system Influenza B.
Experiment [2] relates to PR8 4C [A30T] M2 mutant amantadine resistant influenza A virus.
For experiment [3], the system named is SHIV-1M2 (ion channel sequence of influenza A M2).

Molecules are shown by their SMILES.

One may read the EC50 as the concentration that produces a half-maximal response. A lower EC50 goes with higher potency in that assay. The term EC90 denotes the point of the concentration-response curve where the effect stands at 90%.

With `Cn1cc(-c2cccc3cc(C(=O)NC(=N)N)ccc23)cn1` [BIT225, N-carbamimidoyl-5-(1-methyl-1H-pyrazol-4-yl)-2-naphthamide], the Comments entry in experiment [1] is given as “Active”. Besides, in experiment [2], the EC50 was around 10 µM and the EC90 amounted to 18 µM. Besides, in experiment [3], the “Virus released into the culture supernatant as measured by viral p27 protein” value is “reduced virus released”.
In the case of `NC12CC3CC(CC(C3)C1)C2` [amantadine, reference compound], in experiment [2], the “Shift in drug sensitivity caused by the A30T mutation in M2” value is reported as “large shift in drug sensitivity”.

The values are drawn from patent publication US10918623B2, “Methods of treating influenza” (Biotron Limited, priority 2017, dated 2021).
